What was measured:
human progenitor cells = test: IL-4/IFN-gamma induced apoptosis, Annexin V staining; assay type: cell-based
Procedure: FIG. 6. The Effects of Pentosan Polysulfate (PPS) on Human progenitor cells treated with apoptotic agents. Human progenitor cells were plated in serum-free media supplemented with PPS at the indicated concentrations. Progenitor cell apoptosis was induced by the addition of a combination of 30 ng/ml IL-4 plus 30,000 U/ml IFN-gamma. Following 5 days culture, cells were harvested by trypsinisation and viabilities assessed by Annexin V staining.
Human progenitor cells were plated in serum-free media supplemented with PPS at concentrations of 0, 1, 2, 5 and 10 micrograms/mL. Progenitor cell apoptosis was induced by the addition of a combination of 30 ng/ml IL-4 30,000 U/ml IFN gamma. Following 5 days culture, cells were harvested by trypsinisation and viabilities assessed by Annexin V staining as previously described (Kortesidis A, A Zannettino, S Isenmann, S Shi, T Lapidot and S Gronthos. (2005). Stromal-derived factor-1 promotes the growth, survival, and development of human bone marrow stromal stem cells. Blood 105:3793-3801).
The experiment was undertaken in a 96 well plate containing 50,000 progenitor cells/well.

[1] = system: murine progenitor cells (C3H10T1-2); test: Proteoglycan synthesis in micromass cultures, 6 and 9 days; assay type: cell-based; conditions: FIG. 16
Procedure: FIG. 16. A bar graph showing the concentration dependent effects of PPS on proteoglycan synthesis by murine progenitor cells (C3H10T1-2) in micromass cultures for 6 days and 9 days. PPS was included in the media (Ham's F12+10% FCS) and was changed every 48 hours. ^35S—SO4 was added 24 hours before culture termination. Synthesis normalized to DNA content. * P<0.05, **P<0.005, ***P<0.0005 relative to controls.
The technique used was based on that described by (Denker A E, Haas A R, Nicoll S B and Tuan R S. Chondrogenic differentiation of murine C3H10T1/2 multipotential progenitor cells: I. Stimulation by bone morphogenetic protein-2 in high density micromass cultures. Differentiation (1999); 64: 67-76). Briefly murine Progenitor cells (cell lines C3H10T1/2 or ATDC5) purchased from RIKEN Cell Bank (Tsukuba, Japan) or human immunoselected Stro-1+ Progenitor cells (Mesoblast Ltd, Melbourne, Australia) Ten microlitres (10 μl) of a suspension of the progenitor cells (1×10^7 cells/ml in Ham's F12 medium+10% FBS) were applied to individual wells of a 24-well plates. […] The radioactivity of ^35S—SO4 incorporated the ^35S-GAG-CPC complexes was measured by scintillation counting. […]

pentosan polysulfate [PPS]
PPS concentration with best results on apoptosis (human progenitor cells; FIG. 6): 10 µg/mL | reduction in IFN-gamma/IL-4-induced apoptosis (Annexin V positive cells) (human progenitor cells; PPS in excess 1 ug/ml, 5 days culture, FIG. 6): two-fold reduction | cell apoptosis (human progenitor cells; all concentrations of PPS (1, 2, 5, 10 micrograms/mL)): reduced | reduction of apoptosis (human progenitor cells; concentrations above 1 microgram/mL, incubated with IL-4 and IFN-gamma, FIG. 6): about 50% | uptake of 35S into newly synthesized PG ([1]; 1-20 micrograms/mL, micromass): Highly significant stimulation | stimulation of proteoglycan synthesis ([1]; 1 microgram/mL, nine days in micromass cultures): 100%

Reference: patent US9888679B2, “Protection of progenitor cells and regulation of their differentiation” (Proteobioactives Pty Ltd, priority 2007, dated 2018)
